Each structure is given as a SMILES string. Where “and” joins values, the source holds several entries; their conditions need not be identical. Identical values can stand only once. Numbers after ± are expanded uncertainties.

The nature of data set [1]: molar enthalpy of vaporization or sublimation. The note with it: 298.15 K; Crystal 1; DSC.
The conditions of data set [2]: DTA.
Data set [3] can be described thus: Molar enthalpy of transition or fusion. The note with it: DSC.

As to `O=C(O)CCCC(=O)O` [1,5-pentanedioic acid], the molar enthalpy in data set [1] is 28.5 ± 1.53 kcal/mol. The Triple point temperature in data set [2] (Crystal 1) is reported as 363.9 ± 13 K; in data set [2] (Crystal 2) it was 340.5 ± 3.6 K. Besides, the “Molar enthalpy of transition or fusion” value in data set [3] (Crystal 1) amounted to 4.49 ± 0.143 kcal/mol; in data set [3] (Crystal 2) it was 0.55 ± 0.143 kcal/mol.

For the compound `O=C(O)CCCCC(=O)O` [1,6-hexanedioic acid], the Triple point temperature in data set [2] (Crystal 1) came out at 419 ± 2.8 K. Further, in data set [3] (Crystal 1), the “Molar enthalpy of transition or fusion” value turned out to be 8.05 ± 0.239 kcal/mol.

For the compound `O=C(O)CCCCCC(=O)O` [1,7-heptanedioic acid], in data set [1], the molar enthalpy was determined as 31.8 ± 1.7 kcal/mol. Moreover, the Triple point temperature in data set [2] (Crystal 1) was determined as 368.2 ± 3.2 K; in data set [2] (Crystal 2), 366.3 ± 2.8 K; in data set [2] (Crystal 3), 337.7 ± 3.2 K. The figures for the “Molar enthalpy of transition or fusion” value in data set [3] (Crystal 1) and in data set [3] (Crystal 3) were 5.66 ± 0.598 kcal/mol and 0.359 ± 0.143 kcal/mol, respectively.

`O=C(O)CCCCCCC(=O)O` [1,8-octanedioic acid]: the molar enthalpy in data set [1] was found to be 36.1 ± 1.94 kcal/mol. The figures for the Triple point temperature in data set [2] (Crystal 1), in data set [2] (Crystal 2) and in data set [2] (Crystal 3) were 413.2 ± 0.5 K, 403.6 ± 0.5 K and 355.9 ± 1.6 K, respectively. Besides, the results for the “Molar enthalpy of transition or fusion” value in data set [3] (Crystal 1), in data set [3] (Crystal 2) and in data set [3] (Crystal 3) were 7.34 ± 0.239 kcal/mol, 2.17 ± 0.0717 kcal/mol and 0.478 ± 0.382 kcal/mol, respectively.

On to `O=C(O)CCCCCCCC(=O)O` [1,9-nonanedioic acid], for which the molar enthalpy in data set [1] stood at 34.5 ± 1.84 kcal/mol. Moreover, the values for the Triple point temperature in data set [2] (Crystal 1), in data set [2] (Crystal 2) and in data set [2] (Crystal 3) were 372.4 ± 2.4 K, 339.8 ± 8.4 K and 330.6 ± 0.5 K, respectively. The “Molar enthalpy of transition or fusion” value in data set [3] (Crystal 1) was 7.1 ± 0.454 kcal/mol; in data set [3] (Crystal 2), 0.167 ± 0.143 kcal/mol; in data set [3] (Crystal 3) it was 0.00239 kcal/mol.

Regarding `O=C(O)CCCCCCCCC(=O)O` [1,10-decanedioic acid], the Triple point temperature was 403.9 ± 0.9 K in data set [2] (Crystal 1) and 370.3 ± 0.5 K in data set [2] (Crystal 2). Also, the entries for the “Molar enthalpy of transition or fusion” value in data set [3] (Crystal 1) and in data set [3] (Crystal 2) were 11.1 ± 2.39 kcal/mol and 0.0956 ± 0.0478 kcal/mol, respectively.

In the case of `O=C(O)CCCCCCCCCC(=O)O` [1,11-undecanedioic acid], in data set [1], the molar enthalpy was 39.1 kcal/mol and 39.3 kcal/mol. Further, the results for the Triple point temperature in data set [2] (Crystal 1) and in data set [2] (Crystal 2) were 380.1 ± 1.6 K and 355.3 ± 0.9 K, respectively. Moreover, the results for the “Molar enthalpy of transition or fusion” value in data set [3] (Crystal 1) and in data set [3] (Crystal 2) were 9.85 ± 0.789 kcal/mol and 0.382 ± 0.239 kcal/mol, respectively.

Regarding `O=C(O)CCCCCCCCCCCCC(=O)O` [1,12-dodecanedicarboxylic acid], the molar enthalpy in data set [1] was found to be 41.8 ± 2.22 kcal/mol. Also, in data set [2] (Crystal 1), the Triple point temperature worked out at 397.3 ± 0.5 K. In addition, the “Molar enthalpy of transition or fusion” value in data set [3] (Crystal 1) was determined as 13.5 ± 0.813 kcal/mol.

In the case of `O=C(O)CCCCCCCCCCC(=O)O` [1,12-dodecanedioic acid], the molar enthalpy in data set [1] was 41 ± 2.17 kcal/mol. For the same compound, the figures for the Triple point temperature in data set [2] (Crystal 1), in data set [2] (Crystal 2) and in data set [2] (Crystal 3) were 400.3 ± 1.3 K, 387 ± 1 K and 359.5 ± 9.6 K, respectively. Further, the entries for the “Molar enthalpy of transition or fusion” value in data set [3] (Crystal 1), in data set [3] (Crystal 2) and in data set [3] (Crystal 3) were 11.9 ± 0.574 kcal/mol, -0.0239 ± 0.0956 kcal/mol and 0.0143 ± 0.0359 kcal/mol, respectively.

As for `O=C(O)CCC(=O)O` [butanedioic acid], the Triple point temperature in data set [2] (Crystal 1) was 455.2 ± 2.4 K. Further, the “Molar enthalpy of transition or fusion” value in data set [3] (Crystal 1) was 8.13 ± 0.239 kcal/mol.

Turning to `O=C(O)CCCCCCCCCCCCCCC(=O)O` [hexadecanedioic acid], in data set [2] (Crystal 1), the Triple point temperature was 395.4 ± 1.3 K. Further, the “Molar enthalpy of transition or fusion” value in data set [3] (Crystal 1) came out at 12.5 ± 0.263 kcal/mol.

Take `O=C(O)CCCCCCCCCCCC(=O)O` [tridecanedioic acid]: in data set [2] (Crystal 1), the Triple point temperature was determined as 386.3 ± 2.8 K. In data set [3] (Crystal 1), the “Molar enthalpy of transition or fusion” value came out at 11.8 ± 0.239 kcal/mol.

For the origin of these results see the NIST ThermoML archive (doi:10.1016/j.jct.2004.12.011).
